The results in this text go back to PubChem BioAssay (NCI).

“And” between values parts separate entries of the source, which are not always exact repeats. Identical values can stand only once.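 Cells were grown in 96-well plates and exposed to each compound for 48 hours at five concentrations; endpoints were interpolated linearly between bracketing concentrations, or set to the highest concentration if not reached. TGI: total growth inhibition.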 Some results are limits rather than exact numbers.

What is called TGI is the concentration giving total growth inhibition. A high value points to less potent growth arrest.

Some test systems named below: HCC-2998 colon; NCI/ADR-RES ovarian; SF-539 CNS; A498 renal; MOLT-4 leukemia; CAKI-1 renal; CCRF-CEM leukemia; SN12C renal; PC-3 prostate; NCI-H460 lung; U251 CNS; OVCAR-5 ovarian; A549 NSCLC; M14 melanoma; UO-31 renal; HS 578T breast; SK-MEL-28 melanoma; TK-10 renal; HCT-116 colon; IGROV1 ovarian.
Common to all, as to assay: DTP human tumour cell line panel, 48 h

For the compound `O=C(O)c1nc2ccccc2nc1NCc1ccc(F)cc1`, the TGI with HCC-2998 colon, with NCI/ADR-RES ovarian, in the test with SF-539 CNS, in the test on A498 renal, with MOLT-4 leukemia and in the test on CAKI-1 renal was greater than 100 µM in each case. Also, the TGI with CCRF-CEM leukemia, in the test with SN12C renal, with PC-3 prostate, with NCI-H460 lung, with U251 CNS and in the test with OVCAR-5 ovarian was greater than 100 µM each time. Further, the TGI in the test with A549 NSCLC, in the test with M14 melanoma, with UO-31 renal, in the test with HS 578T breast, with SK-MEL-28 melanoma and in the test on TK-10 renal was greater than 100 µM each time. The total growth inhibition concentration (TGI) in the test on HCT-116 colon and with IGROV1 ovarian was greater than 100 µM each time.

Take `COC(=O)N/N=C(/c1nc2ccc([N+](=O)[O-])cc2[nH]c1=O)C(O)c1ccc(OC)c(OC)c1` (stereo not given): the TGI in the test on HCC-2998 colon, with NCI/ADR-RES ovarian, in the test on SF-539 CNS, in the test on A498 renal, with MOLT-4 leukemia and with CAKI-1 renal was greater than 100 µM in each case. Also, the TGI in the test with CCRF-CEM leukemia, in the test with SN12C renal, in the test with PC-3 prostate, in the test on NCI-H460 lung, in the test with U251 CNS and in the test with OVCAR-5 ovarian was greater than 100 µM throughout. Moreover, the concentration for total growth inhibition (TGI) with A549 NSCLC, with M14 melanoma, in the test with UO-31 renal, in the test with HS 578T breast, with SK-MEL-28 melanoma and in the test on TK-10 renal was greater than 100 µM throughout. Besides, the TGI in the test on HCT-116 colon and in the test with IGROV1 ovarian was greater than 100 µM each time.

`CN(C)CCCN1c2ccc([N+](=O)[O-])cc2CCc2cc([N+](=O)[O-])ccc21`: the TGI with HCC-2998 colon was 21.9 µM and 24.7 µM; in the test on NCI/ADR-RES ovarian, 30.8 µM and 32.6 µM; in the test on SF-539 CNS, 30.6 µM and 37.8 µM; with A498 renal, 22.5 µM; in the test with MOLT-4 leukemia it was 42.9 µM and 25.3 µM; in the test on CAKI-1 renal, 29.1 µM. The concentration for total growth inhibition (TGI) is 28.4 µM in the test with CCRF-CEM leukemia; 29.3 µM and 28.4 µM in the test on SN12C renal; 31.3 µM and 27 µM with PC-3 prostate; 30 µM and 26.2 µM in the test on NCI-H460 lung; 30.2 µM and 27.6 µM in the test with U251 CNS; 28.6 µM and 28 µM in the test with OVCAR-5 ovarian. Moreover, the TGI in the test with A549 NSCLC was 32.7 µM and 31.5 µM; in the test with M14 melanoma, 31 µM and 28 µM; in the test on UO-31 renal, 37.4 µM and 25 µM; in the test with HS 578T breast it was 34.4 µM and 35.6 µM; with SK-MEL-28 melanoma it was 30 µM and 29.3 µM; in the test with TK-10 renal, 23.3 µM and 24.3 µM. The TGI in the test on HCT-116 colon was 27.4 µM and 27.1 µM; with IGROV1 ovarian, 28.9 µM and 29.1 µM.

With `CSc1ccc(/C=C2\N=C(c3ccccc3)N(/N=C3\C(=O)Nc4ccccc43)C2=O)cc1`, the concentration for total growth inhibition (TGI) in the test on HCC-2998 colon, with NCI/ADR-RES ovarian, with SF-539 CNS, with A498 renal, with MOLT-4 leukemia and in the test with CAKI-1 renal was greater than 100 µM each time. The concentration for total growth inhibition (TGI) in the test on CCRF-CEM leukemia, with SN12C renal, in the test with PC-3 prostate, in the test with NCI-H460 lung, in the test with U251 CNS and in the test with OVCAR-5 ovarian was greater than 100 µM each time. Moreover, the TGI with A549 NSCLC, in the test on M14 melanoma, with UO-31 renal, with HS 578T breast, in the test on SK-MEL-28 melanoma and with TK-10 renal was greater than 100 µM each time. In addition, the TGI in the test on HCT-116 colon and with IGROV1 ovarian was greater than 100 µM in each case.

With `CCOC(=O)CC(=O)CSc1c(-c2ccccc2)c(=O)n(-c2ccccc2)c(=S)n1-c1ccccc1`, the TGI with HCC-2998 colon, in the test with NCI/ADR-RES ovarian, in the test on SF-539 CNS, in the test with A498 renal, in the test with MOLT-4 leukemia and with CAKI-1 renal was greater than 100 µM throughout. In addition, the concentration for total growth inhibition (TGI) in the test with CCRF-CEM leukemia, in the test on SN12C renal, with PC-3 prostate, in the test with NCI-H460 lung, in the test on U251 CNS and with OVCAR-5 ovarian was greater than 100 µM each time. The total growth inhibition concentration (TGI) with A549 NSCLC, with M14 melanoma, with UO-31 renal, with HS 578T breast, with SK-MEL-28 melanoma and in the test with TK-10 renal was greater than 100 µM throughout. The TGI in the test with HCT-116 colon and in the test on IGROV1 ovarian was greater than 100 µM each time.

As to `Cn1cnc2c1c(=O)n(CCNCCO)c(=O)n2C`, the concentration for total growth inhibition (TGI) with HCC-2998 colon, in the test on NCI/ADR-RES ovarian, with SF-539 CNS, in the test on A498 renal, in the test with MOLT-4 leukemia and in the test with CAKI-1 renal was greater than 100 µM each time. Moreover, the TGI with CCRF-CEM leukemia, with SN12C renal, in the test on PC-3 prostate, in the test with NCI-H460 lung, with U251 CNS and in the test on OVCAR-5 ovarian was greater than 100 µM each time. The TGI with A549 NSCLC, in the test with M14 melanoma, with UO-31 renal, with HS 578T breast, with SK-MEL-28 melanoma and in the test on TK-10 renal was greater than 100 µM in each case. Besides, the TGI with HCT-116 colon and with IGROV1 ovarian was greater than 100 µM each time.

`COC(=O)[C@@H]1COC(C(C)(C)C)N1C(=O)C(c1ccccc1)c1ccccc1` (stereo not given in full): the TGI with HCC-2998 colon, in the test on NCI/ADR-RES ovarian, with SF-539 CNS, in the test with A498 renal, in the test on MOLT-4 leukemia and with CAKI-1 renal was greater than 100 µM throughout. The TGI in the test on CCRF-CEM leukemia is 84.7 µM; in the test on SN12C renal it was greater than 100 µM; in the test with PC-3 prostate, greater than 100 µM; in the test with NCI-H460 lung, greater than 100 µM; in the test with U251 CNS, greater than 100 µM; with OVCAR-5 ovarian, greater than 100 µM. Also, the TGI in the test with A549 NSCLC, with M14 melanoma, in the test on UO-31 renal, in the test with HS 578T breast, in the test with SK-MEL-28 melanoma and in the test with TK-10 renal was greater than 100 µM in each case. Moreover, the total growth inhibition concentration (TGI) in the test on HCT-116 colon and with IGROV1 ovarian was greater than 100 µM throughout.
